In PubChem BioAssay (NCI):
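Results reflect a 48-hour exposure of cells in 96-well plates to compound at five concentrations. GI50: concentration for 50% inhibition of growth. At the TGI there is no net growth.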

Experiments:
Assay in all cases: inhibition of tumour cell growth, NCI panel, 48 h
[1] = tested on: IGROV1 ovarian
[2] = tested on: SR leukemia
[3] = tested on: K-562 leukemia
[4] = tested on: BT-549 breast
[5] = tested on: MALME-3M melanoma
[6] = tested on: RXF 393 renal
[7] = tested on: NCI-H23 lung
[8] = tested on: SK-MEL-28 melanoma
[9] = tested on: HOP-92 NSCLC
[10] = tested on: MDA-MB-231 breast
[11] = tested on: NCI-H460 lung
[12] = tested on: SF-539 CNS
[13] = tested on: M14 melanoma
[14] = tested on: HL-60(TB) leukemia
[15] = tested on: SF-295 CNS
[16] = tested on: MDA-MB-435
[17] = tested on: HCT-15 colon
[18] = tested on: CCRF-CEM leukemia
[19] = tested on: A498 renal
[20] = tested on: HCT-116 colon
[21] = tested on: PC-3 prostate
[22] = tested on: OVCAR-8 ovarian
[23] = tested on: OVCAR-5 ovarian
[24] = tested on: MCF7 breast
[25] = tested on: SNB-19 CNS
[26] = tested on: SNB-75 CNS
[27] = tested on: SK-MEL-5 melanoma
[28] = tested on: HT29 colon
[29] = tested on: HCC-2998 colon
[30] = tested on: NCI-H226 lung
[31] = tested on: HOP-62 NSCLC
[32] = tested on: SK-MEL-2 melanoma
[33] = tested on: HS 578T breast
[34] = tested on: CAKI-1 renal
[35] = tested on: TK-10 renal
[36] = tested on: T-47D breast
[37] = tested on: LOX IMVI melanoma
[38] = tested on: KM12 colon
[39] = tested on: SK-OV-3 ovarian
[40] = tested on: UACC-257 melanoma
[41] = tested on: DU-145 prostate
[42] = tested on: A549 NSCLC
[43] = tested on: OVCAR-3 ovarian
[44] = tested on: SW-620 colon
[45] = tested on: ACHN renal
[46] = tested on: U251 CNS
[47] = tested on: COLO 205 colon
[48] = tested on: NCI-H522 lung
[49] = tested on: RPMI-8226 leukemia
[50] = tested on: NCI/ADR-RES ovarian
[51] = tested on: EKVX NSCLC
[52] = tested on: SN12C renal
[53] = tested on: SF-268 CNS
[54] = tested on: MOLT-4 leukemia
[55] = tested on: UO-31 renal
[56] = tested on: 786-0 renal
[57] = tested on: OVCAR-4 ovarian

O=C(/C=C/c1c(-c2ccccc2)[nH]c2ccccc12)S(=O)(=O)c1ccccc1
GI50 [1]: 24.3 µM | TGI [1]: > 100 µM | GI50 [2]: 2.42 µM | TGI [2]: 6.72 µM | GI50 [3]: 3.7 µM | TGI [3]: > 100 µM | GI50 [4]: 5.33 µM | TGI [4]: > 100 µM | GI50 [5]: 8.11 µM | TGI [5]: > 100 µM | GI50 [6]: 9.34 µM | TGI [6]: 67.1 µM | GI50 [7]: 13.6 µM | TGI [7]: > 100 µM | GI50 [8]: 27.1 µM | TGI [8]: > 100 µM | GI50 [9]: 16.3 µM | TGI [9]: > 100 µM | GI50 [10]: 16.6 µM | TGI [10]: > 100 µM | GI50 [11]: 3.7 µM | TGI [11]: > 100 µM | GI50 [12]: 17.5 µM | TGI [12]: > 100 µM | GI50 [13]: 5.86 µM | TGI [13]: > 100 µM | GI50 [14]: 5.6 µM | TGI [14]: 98.7 µM | GI50 [15]: 0.818 µM | TGI [15]: > 100 µM | GI50 [16]: 1.73 µM | TGI [16]: 5.07 µM | GI50 [17]: 6.42 µM | TGI [17]: > 100 µM | GI50 [18]: 5.41 µM | TGI [18]: > 100 µM | GI50 [19]: 2.2 µM | TGI [19]: 87.8 µM | GI50 [20]: 4.81 µM | TGI [20]: > 100 µM | GI50 [21]: 8.15 µM | TGI [21]: > 100 µM | GI50 [22]: 53.6 µM | TGI [22]: > 100 µM | GI50 [23]: > 100 µM | TGI [23]: > 100 µM | GI50 [24]: 3.09 µM | TGI [24]: > 100 µM | GI50 [25]: 35.7 µM | TGI [25]: > 100 µM | GI50 [26]: 3.96 µM | TGI [26]: > 100 µM | GI50 [27]: 4.38 µM | TGI [27]: > 100 µM | GI50 [28]: 3.76 µM | TGI [28]: > 100 µM | GI50 [29]: 17.5 µM | TGI [29]: > 100 µM | GI50 [30]: > 100 µM | TGI [30]: > 100 µM | GI50 [31]: 29.9 µM | TGI [31]: > 100 µM | GI50 [32]: 78.6 µM | TGI [32]: > 100 µM | GI50 [33]: 10.1 µM | TGI [33]: > 100 µM | GI50 [34]: 6.42 µM | TGI [34]: > 100 µM | GI50 [35]: 74 µM | TGI [35]: > 100 µM | GI50 [36]: 2.5 µM | TGI [36]: > 100 µM | GI50 [37]: > 100 µM | TGI [37]: > 100 µM | GI50 [38]: 2.03 µM | TGI [38]: > 100 µM | GI50 [39]: 23.5 µM | TGI [39]: > 100 µM | GI50 [40]: > 100 µM | TGI [40]: > 100 µM | GI50 [41]: 7.54 µM | TGI [41]: > 100 µM | GI50 [42]: 24.9 µM | TGI [42]: > 100 µM | GI50 [43]: 4.23 µM | TGI [43]: > 100 µM | GI50 [44]: 5.1 µM | TGI [44]: > 100 µM | GI50 [45]: 39.8 µM | TGI [45]: > 100 µM | GI50 [46]: 40.3 µM | TGI [46]: > 100 µM | GI50 [47]: 6 µM | TGI [47]: > 100 µM | GI50 [48]: 6.11 µM | TGI [48]: > 100 µM | GI50 [49]: 13.3 µM | TGI [49]: > 100 µM | GI50 [50]: 3.19 µM | TGI [50]: 53.6 µM | GI50 [51]: 4.37 µM | TGI [51]: > 100 µM | GI50 [52]: > 100 µM | TGI [52]: > 100 µM | GI50 [53]: 6.24 µM | TGI [53]: > 100 µM | GI50 [54]: 4.78 µM | TGI [54]: > 100 µM | GI50 [55]: > 100 µM | TGI [55]: > 100 µM | GI50 [56]: 52.6 µM | TGI [56]: > 100 µM | GI50 [57]: 4.48 µM | TGI [57]: > 100 µM
